Consider 4 compounds from paper PMC3362318 (Invertebrate Neuroscience, 2012).

In one test the target is T1, Hco-L-AChR2 (Haemonchus contortus, UniProt D6MYE9+D6MYF3+D6MYF4).
T1 sequence (D6MYE9 21-498): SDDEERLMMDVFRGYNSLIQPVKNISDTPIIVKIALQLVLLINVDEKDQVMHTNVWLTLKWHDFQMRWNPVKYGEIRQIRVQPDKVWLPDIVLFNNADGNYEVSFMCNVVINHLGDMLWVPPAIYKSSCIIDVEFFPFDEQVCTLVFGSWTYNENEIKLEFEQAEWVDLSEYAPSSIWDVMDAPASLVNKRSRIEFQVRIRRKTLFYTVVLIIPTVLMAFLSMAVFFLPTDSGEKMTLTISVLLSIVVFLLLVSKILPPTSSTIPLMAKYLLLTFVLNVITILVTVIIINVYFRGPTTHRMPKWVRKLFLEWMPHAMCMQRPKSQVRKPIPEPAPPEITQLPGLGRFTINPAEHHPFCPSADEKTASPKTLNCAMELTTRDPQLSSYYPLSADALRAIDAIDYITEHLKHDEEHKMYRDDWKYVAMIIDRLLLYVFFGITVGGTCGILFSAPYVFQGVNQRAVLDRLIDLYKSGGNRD
T1 sequence (D6MYF3 20-512): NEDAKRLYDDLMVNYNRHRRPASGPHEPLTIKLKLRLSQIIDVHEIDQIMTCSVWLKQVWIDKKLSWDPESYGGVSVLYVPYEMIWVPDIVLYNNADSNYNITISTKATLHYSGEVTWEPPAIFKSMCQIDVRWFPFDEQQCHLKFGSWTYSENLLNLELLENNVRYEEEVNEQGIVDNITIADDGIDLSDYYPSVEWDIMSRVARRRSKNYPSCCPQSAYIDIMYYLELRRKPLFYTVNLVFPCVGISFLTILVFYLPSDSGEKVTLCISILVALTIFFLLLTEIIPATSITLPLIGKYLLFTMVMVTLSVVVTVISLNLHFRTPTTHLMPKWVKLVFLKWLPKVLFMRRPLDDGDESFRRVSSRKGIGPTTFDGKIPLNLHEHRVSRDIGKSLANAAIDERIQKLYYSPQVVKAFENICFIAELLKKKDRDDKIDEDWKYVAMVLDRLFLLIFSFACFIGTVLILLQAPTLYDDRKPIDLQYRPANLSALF
T1 sequence (D6MYF4 22-504): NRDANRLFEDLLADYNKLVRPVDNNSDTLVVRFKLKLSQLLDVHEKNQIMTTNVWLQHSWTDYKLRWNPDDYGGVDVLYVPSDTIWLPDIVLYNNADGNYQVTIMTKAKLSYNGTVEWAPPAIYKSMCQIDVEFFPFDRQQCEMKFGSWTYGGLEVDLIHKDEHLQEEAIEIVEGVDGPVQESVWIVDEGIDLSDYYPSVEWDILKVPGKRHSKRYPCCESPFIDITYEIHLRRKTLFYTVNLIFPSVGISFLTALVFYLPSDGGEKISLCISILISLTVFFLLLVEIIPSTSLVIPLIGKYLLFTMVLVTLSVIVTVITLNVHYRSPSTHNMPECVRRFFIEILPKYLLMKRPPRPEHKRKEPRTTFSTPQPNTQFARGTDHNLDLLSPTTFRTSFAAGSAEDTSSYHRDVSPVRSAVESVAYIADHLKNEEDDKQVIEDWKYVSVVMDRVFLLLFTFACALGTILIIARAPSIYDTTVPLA
The test can be described thus: two-electrode voltage clamp, Xenopus oocytes, peak current. It is filed as cell-based. Particulars: agonist; -60 mV, 1 mM external CaCl2, pH 7.3, BAPTA-AM treated. Background: Two-electrode voltage clamp is typically applied to oocytes expressing channels or transporters.

For test [1], the target named is T2, Hco-L-AChR1 (Haemonchus contortus, UniProt A9XX24+D6MYE9+D6MYF3+D6MYF4). As to the kind of experiment: two-electrode voltage clamp, Xenopus oocytes, dose-response. It is filed as cell-based.
Test [2] concerns the target T2, Hco-L-AChR1. The following applies: agonist; 30 μM; -60 mV, 1 mM external CaCl2, pH 7.3, BAPTA-AM treated.

T2 sequence (A9XX24 19-536, one chain of several): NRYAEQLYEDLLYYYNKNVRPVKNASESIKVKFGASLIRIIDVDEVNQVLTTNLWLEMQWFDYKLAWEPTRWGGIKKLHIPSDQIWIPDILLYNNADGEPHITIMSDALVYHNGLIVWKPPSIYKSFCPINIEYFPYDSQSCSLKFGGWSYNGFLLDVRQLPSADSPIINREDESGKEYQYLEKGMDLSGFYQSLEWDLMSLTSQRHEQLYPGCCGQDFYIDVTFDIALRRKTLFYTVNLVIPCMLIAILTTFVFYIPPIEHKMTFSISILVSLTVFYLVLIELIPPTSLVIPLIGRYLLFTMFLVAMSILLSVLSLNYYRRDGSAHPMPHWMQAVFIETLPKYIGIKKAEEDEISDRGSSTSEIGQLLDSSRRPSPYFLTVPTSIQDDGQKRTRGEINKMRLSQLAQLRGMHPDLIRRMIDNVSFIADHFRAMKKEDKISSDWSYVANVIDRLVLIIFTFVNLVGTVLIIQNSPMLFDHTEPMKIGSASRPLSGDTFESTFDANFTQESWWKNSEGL

The EC50 is the concentration giving half of the maximal effect. Read a high EC50 as a less potent agent. As for `c1ccc([C@H]2CN3CCSC3=N2)cc1` [Lev, levamisole], at Hco-L-AChR2, the “two-electrode voltage clamp, Xenopus oocytes, peak current” value (“two-electrode voltage clamp” below) was “Hco-L-AChR2 potency series was: pyrantel > acetylcholine > nicotine > levamisole”. For the same compound, at Hco-L-AChR1 [1], the EC50 is 6.08 ± 0.3 µM. In turn, `C[N+](C)(CCOc1ccccc1)Cc1ccccc1` [Beph, bephenium] showed a concentration for a half-maximal effect (EC50) on Hco-L-AChR1 [1] of 7.7 ± 0.6 µM.

`CN1CCC[C@H]1c1cccnc1` [Nic, nicotine]: the “two-electrode voltage clamp” value at Hco-L-AChR2 is on record as “Hco-L-AChR2 potency series was: pyrantel > acetylcholine > nicotine > levamisole”. Take `CN1CCCN=C1/C=C/c1cccs1` [Pyr, pyrantel]: the “two-electrode voltage clamp” value on Hco-L-AChR2 is reported as “Hco-L-AChR2 potency series was: pyrantel > acetylcholine > nicotine > levamisole”; at Hco-L-AChR1 [2], “levamisole > acetylcholine > pyrantel > nicotine for the Hco-L-AChR1”.
